Data as given in patent publication US11241434B2, “Compositions and methods for improving cognition in a subject” (Yale University, priority 2013, dated 2022).

Assays:
[1] = Dog exposure (Cmax and AUC) with oral dosing; type: in vivo
[2] = test system: Fyn (p-SFK) and eEF2 phosphorylation in cortical neurons; test: Aβo-induced Fyn activation and eEF2 phosphorylation in cortical neurons (immunoblot); type: cell-based, mouse
Protocol: FIG. 2A: DIV21 cortical neurons from wild type or Prnp−/− mice were treated with or without Aβo for 5 min. Whole cell lysates were analyzed by anti-phospho-eEF2, anti-eEF2, or anti-PrP^C immunoblot. Aβo increased p-eEF2/eEF2 ratio to 210±20% of baseline in WT cultures (mean±sem, n=3), but there was no significant increase in Prnp−/− cultures. FIG. 2B: DIV21 cortical neurons from wild type mice were treated with the indicated human control or AD brain extracts (30 μg total protein/ml) for 5 min. Whole cell lysates were analyzed by anti-phospho-eEF2 or anti-eEF2 immunoblot. AD, but not control (Con), brain extracts increased p-eEF2/eEF2 ratio to 200±10% of untreated cultures (mean±sem, n=4). FIG. 2C: Wild type cortical neurons were treated with or without Aβo for 15 min. […] Whole cell lysates were analyzed by anti-phospho-SFK, anti-Fyn, anti-phospho-eEF2, or anti-eEF2 immunoblot. GAPDH served as a loading control. FIG. 2D: Quantification of phospho-eEF2 level normalized to eEF2 immunoreactivity from four independent experiments. Mean±sem; *, P<0.05, n.s., not significant; One-way ANOVA, with Tukey post-hoc pairwise comparisons.
Because spine turnover is dependent on protein translation machinery, and because both Aβo and Fyn have been linked to mGluR5, a downstream effector of mGluR5-regulated protein translation, the eukaryotic elongation factor 2 (eEF2), was considered. The eEF2 pathway is regulated by phosphorylation and is dysregulated in AD. A3o treatment of cortical neurons increases eEF2 phosphorylation at 5 min (FIG. 2A). Genetic analysis confirmed that the Aβo effect on eEF2 phosphorylation depends on PrP^C (FIG. 2A).
It was tested whether phosphorylation of eEF2 induced by Aβo depends on AZD0530-sensitive Fyn kinase activation. […] Thus, AZD0530 prevented Aβo/PrP-induced, Fyn-dependent neuronal signaling in vitro.

[3] = test system: PS19 mice; test: Morris water maze in P301S Tau (PS19) transgenic mice; type: in vivo, mouse; conditions: 8-month-old PS19 mice, 6 months of treatment, 5 mg/kg/d in diet
From the text: FIGS. 11A-11C illustrate that Fyn kinase inhibition prevents memory deficits in P301S Tau transgenic tice. FIG. 11A: Timeline of PS19 mouse treatment. FIG. 11B: Morris water maze probe trial for 8-month-old PS19 or WT mice after 6 months of AZD0530 or Vehicle treatment. Twenty four hours after the reverse learning trials in the Morris water maze, the submerged platform was removed and the fraction of 60 sec spent in the target quadrant where the hidden platform had been located previously was recorded. n=11-15/group, each dot is one mouse. Data are mean±SEM. Dashed line indicates random chance performance. […] Latency was measured as the time for the mouse to cross to the opaque box. n=16-18/group. […]
To generate chow containing chow for chronic dosing, the compound was incorporated into purified diet pellets by Research Diets, Inc. by dissolving the compound in a solution of 0.5% w/v Hydroxypropylmethylcellulose/0.1% w/v polysorbate 80 at 1.429 mg/ml. […] The dosage of the drug in the food was calculated to take into account the average amount of food eaten by a mouse in a single day per kg of weight and adjusted to be equivalent to ingesting 5 mg/kg per day.
The Morris water maze paradigm was performed as previously described (Kaufman et al., 2015, Ann Neurol 77:953-971). […] Latency was measured as the time that it took for the mouse to find and spend 1 second on the hidden platform. […]

[4] = test system: solid tumors; conditions: single agent, specific oncological indications; cited from earlier work
[5] = Dog toxicology studies (6 month and nine-month); type: in vivo
From the text: The body weight of dogs treated with different doses of saracatinib was plotted as a function of time. There were a […] (4 female and 4 male in each group), but a single sex (male) is shown here because the weight range is different between sexes. The trend for female dogs is similar but not shown. Values are mean±sem.

[6] = test system: APPswe/PS1ΔE9 transgenic mice; test: Novel Object Recognition in AD transgenic mice; type: in vivo, mouse; conditions: 5 weeks treatment
[7] = saracatinib 1 hour prior to Aβo, Aβo 15 min

CN1CCN(CCOc2cc(OC3CCOCC3)c3c(Nc4c(Cl)ccc5c4OCO5)ncnc3c2)CC1 [saracatinib, N-(5-chloro-benzo[d][1,3]dioxol-4-yl)-7-(2-(4-methylpiperazin-1-yl)ethoxy)-5-(tetrahydro-2H-pyran-4-yloxy)quinazolin-4-amine]
human daily dose equivalent ([1]; dog 2 mg/kg/d): 50 mg
human dose of equivalent exposure (Cmax and AUC) ([1]; dog 5 mg/kg, saracatinib free base in human): 125 mg
dose dependence of exposure ([1]; dog, multiple dosing, 0.5 to 5 mg/kg oral daily dose): linear
basal p-SFK levels ([2]; cortical neurons, saracatinib 1 hour): suppressed
Aβo stimulation of target kinase (p-SFK) [2, 7]: fully prevented
Aβo-induced increase of eEF2 phosphorylation [2, 7]: fully blocked
probe trial after reverse learning, time in target quadrant [3]: significantly improved the memory deficit
benefit in Phase II studies [4]: limited benefit
body weight ([5]; nine-month study): continued weight gain
adverse symptoms ([5]; nine-month study, 0.5, 2 and 5 mg/kg/d, at 8.75 months): no obvious adverse symptoms
Novel Object Recognition performance [6]: performance equal to the WT mice
